Reference: patent US12655160B2, “KRAS G12D inhibitors” (Mirati Therapeutics, Inc., priority 2020, dated 2026)
Where a name gives a salt, the structure may show the parent alone.

target: KRas G12D (Homo sapiens, UniProt P01116, G12D); test: KRas G12D Binding Assay (TR-FRET displacement of labeled tracer); set-up: corresponding to amino acids 1:169, produced at Array BioPharma Inc; biotin (biotinylated); settings: TR-FRET displacement of Cy5 labelled tracer, Biotinylated GDP-loaded KRAS G12D (amino acids 1:169), 60 minute incubation at 22° C.
Sequence (P01116 1-169 isoform P01116-2 G12D): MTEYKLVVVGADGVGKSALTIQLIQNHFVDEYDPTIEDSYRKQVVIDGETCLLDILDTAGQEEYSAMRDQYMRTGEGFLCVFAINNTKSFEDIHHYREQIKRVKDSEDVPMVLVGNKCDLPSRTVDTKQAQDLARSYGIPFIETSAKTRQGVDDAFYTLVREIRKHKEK
Description: This Example illustrates that exemplary compounds of the present invention bind to KRas G12D and are capable of displacing a labeled tracer ligand occupying the KRas G12D binding site. The ability of a compound to bind to KRAS G12D was measured using a TR-FRET displacement assay. Biotinylated GDP-loaded recombinant human KRAS G12D (corresponding to amino acids 1:169, produced at Array BioPharma Inc.) was incubated with a custom-made Cy5 labelled tracer, europium labelled streptavidin and compound (2% DMSO final) in buffer (50 mM HEPES [pH 7.5], 5 mM MgCl2, 0.005% Tween-20 & 1 mM DTT). After a 60 minute incubation at 22° C., the reaction was measured using a PerkinElmer EnVision multimode plate reader via TR-FRET dual wavelength detection, and the percent of control (POC) calculated using a ratiometric emission factor. […] The POC values were fit to a 4-parameter logistic curve and the IC50 value was determined as the concentration where the curve crosses 50 POC.

Going from `CNC1(CNc2nc(OCC34CCCN3CCC4)nc3c(F)c(-c4cccc5cccc(F)c45)ncc23)CCC1` [Example 59, 8-fluoro-7-(8-fluoronaphthalen-1-yl)-2-((hexahydro-1H-pyrrolizin-7a-yl)methoxy)-N-((1-(methylamino)cyclobutyl)methyl)pyrido[4,3-d]pyrimidin-4-amine] to `CN(C)C1(CNc2nc(OCC34CCCN3CCC4)nc3c(F)c(-c4cccc5cccc(F)c45)ncc23)CCC1` [Example 14, N-((1-(dimethylamino)cyclobutyl)methyl)-8-fluoro-7-(8-fluoronaphthalen-1-yl)-2-((hexahydro-1H-pyrrolizin-7a-yl)methoxy)pyrido[4,3-d]pyrimidin-4-amine], the IC50 falls from 1030 nM to 306 nM (3.4-fold).

Compared with `CN(CC1(N(C)C)CCC1)c1nc(OC[C@@]23CCCN2C[C@H](F)C3)nc2c(F)c(-c3cc(O)cc4ccccc34)ncc12` [Example 28], `CCc1cccc2cc(O)cc(-c3ncc4c(N(C)CC5(N(C)C)CCC5)nc(OC[C@@]56CCCN5C[C@H](F)C6)nc4c3F)c12` [Example 37, 4-(4-(((1-(dimethylamino)cyclobutyl)methyl)(methyl)amino)-8-fluoro-2-(((2R,7aS)-2-fluorotetrahydro-1H-pyrrolizin-7a(5H)-yl)methoxy)pyrido[4,3-d]pyrimidin-7-yl)-5-ethylnaphthalen-2-ol dihydrochloride] is 23-fold lower in IC50: 609 nM for the first, 26.1 nM for the second.

Going from `CC#Cc1cccc2cccc(-c3ncc4c(NCC5(N(C)C)CCC5)nc(OC[C@@]56CCCN5C[C@H](F)C6)nc4c3F)c12` [Example 27, N-((1-(dimethylamino)cyclobutyl)methyl)-8-fluoro-2-(((2R,7aS)-2-fluorotetrahydro-1H-pyrrolizin-7a(5H)-yl)methoxy)-7-(8-(prop-1-yn-1-yl)naphthalen-1-yl)pyrido[4,3-d]pyrimidin-4-amine] to `CN(C)C1(CNc2nc(OC[C@@]34CCCN3C[C@H](F)C4)nc3c(F)c(-c4cccc5cccc(Cl)c45)ncc23)CCC1` [Example 23, 7-(8-chloronaphthalen-1-yl)-N-((1-(dimethylamino)cyclobutyl)methyl)-8-fluoro-2-(((2R,7aS)-2-fluorotetrahydro-1H-pyrrolizin-7a(5H)-yl)methoxy)pyrido[4,3-d]pyrimidin-4-amine], the IC50 falls from 1880 nM to 583 nM (3.2-fold).

Compared with `CN(C)CCNc1nc(OC[C@@]23CCCN2C[C@H](F)C3)nc2c(F)c(-c3cc(O)cc4ccccc34)ncc12` (racemic) [Example 39, 4-(4-((2-(dimethylamino)ethyl)amino)-8-fluoro-2-(((2S,7aR)-2-fluorotetrahydro-1H-pyrrolizin-7a(5H)-yl)methoxy)pyrido[4,3-d]pyrimidin-7-yl)naphthalen-2-ol bis(2,2,2-trifluoroacetate)], `CN(C)C1(CNc2nc(OC[C@@]34CCCN3C[C@H](F)C4)nc3c(F)c(-c4cc(O)cc5ccccc45)ncc23)CC1` [Example 6, 4-(4-(((1-(dimethylamino)cyclopropyl)methyl)amino)-8-fluoro-2-(((2R,7aS)-2-fluorotetrahydro-1H-pyrrolizin-7a(5H)-yl)methoxy)pyrido[4,3-d]pyrimidin-7-yl)naphthalen-2-bis(2,2,2-trifluoroacetate)] is 4.5-fold lower in IC50: 521 nM for the first, 117 nM for the second.

Compared with `CN(C)C1(CNc2nc(OC[C@@]34CCCN3C[C@H](F)C4)nc3c(F)c(-c4cc(O)cc5ccccc45)ncc23)CCCCC1` [Example 30], `CCc1cccc2cc(O)cc(-c3ncc4c(NCC5(N(C)C)CCCC5)nc(OC[C@@]56CCCN5C[C@H](F)C6)nc4c3F)c12` [Example 34, 4-(4-(((1-(dimethylamino)cyclopentyl)methyl)amino)-8-fluoro-2-(((2R,7aS)-2-fluorotetrahydro-1H-pyrrolizin-7a(5H)-yl)methoxy)pyrido[4,3-d]pyrimidin-7-yl)-5-ethylnaphthalen-2-ol dihydrochloride] is 1400-fold lower in IC50: 1580 nM for the first, 1.1 nM for the second.

First: CN(C)C1(CNc2nc(OCC34CCCN3CCC4)nc3c(F)c(-c4cccc5cccc(F)c45)ncc23)CCCC1 [Example 61, N-((1-(dimethylamino)cyclopentyl)methyl)-8-fluoro-7-(8-fluoronaphthalen-1-yl)-2-((hexahydro-1H-pyrrolizin-7a-yl)methoxy)pyrido[4,3-d]pyrimidin-4-amine]
Second: CN(C)C1(CNc2nc(OCC34CCCN3CCC4)nc3c(F)c(-c4cccc5cccc(F)c45)ncc23)CCOCC1 [Example 53, N-((4-(dimethylamino)tetrahydro-2H-pyran-4-yl)methyl)-8-fluoro-7-(8-fluoronaphthalen-1-yl)-2-((hexahydro-1H-pyrrolizin-7a-yl)methoxy)pyrido[4,3-d]pyrimidin-4-amine]
The IC50 of the first is 15-fold lower: 480 nM for the first, 7160 nM for the second. The first is the more potent here.

Compared with `CCc1cccc2cc(O)cc(-c3ncc4c(NCC5(N(C)C)CCC5)nc(OC[C@@]56CCCN5C[C@H](F)C6)nc4c3F)c12` [Example 33, 4-(4-(((1-(dimethylamino)cyclobutyl)methyl)amino)-8-fluoro-2-(((2R,7aS)-2-fluorotetrahydro-1H-pyrrolizin-7a(5H)-yl)methoxy)pyrido[4,3-d]pyrimidin-7-yl)-5-ethylnaphthalen-2-ol dihydrochloride], `C=C(C)c1cccc2cccc(-c3ncc4c(NCC5(N(C)C)CCC5)nc(OCC56CCCN5C[C@H](F)C6)nc4c3F)c12` (mixture of isomers) [Example 24, N-((1-(dimethylamino)cyclobutyl)methyl)-8-fluoro-2-(((2S,7aR)-2-fluorotetrahydro-1H-pyrrolizin-7a(5H)-yl)methoxy)-7-(8-(prop-1-en-2-yl)naphthalen-1-yl)pyrido[4,3-d]pyrimidin-4-amine] is 1100-fold higher in IC50: 0.9 nM for the first, 954 nM for the second. The first is the more potent here.

`CN1CCC[C@@H]1COc1nc(NCC2(N(C)C)CCC2)c2cnc(-c3cc(O)cc4ccccc34)c(F)c2n1` [Example 32] and `Oc1cc(-c2ncc3c(NCC4(O)CNC4)nc(OC[C@@]45CCCN4C[C@H](F)C5)nc3c2F)c2ccccc2c1` [Example 38, 3-(((8-fluoro-2-(((2R,7aS)-2-fluorotetrahydro-1H-pyrrolizin-7a(5H)-yl)methoxy)-7-(3-hydroxynaphthalen-1-yl)pyrido[4,3-d]pyrimidin-4-yl)amino)methyl)azetidin-3-ol bis(2,2,2-trifluoroacetate)] are within 1.5-fold of each other in IC50: 381 nM for the first, 389 nM for the second.

First: CN(CC1(N(C)C)CCC1)c1nc(OCC23CCCN2CCC3)nc2c(F)c(-c3cccc4cccc(F)c34)ncc12 [Example 58, N-((1-(dimethylamino)cyclobutyl)methyl)-8-fluoro-7-(8-fluoronaphthalen-1-yl)-2-((hexahydro-1H-pyrrolizin-7a-yl)methoxy)-N-methylpyrido[4,3-d]pyrimidin-4-amine]
Second: CC(C)c1cccc2cccc(-c3ncc4c(NCC5(N(C)C)CCC5)nc(OCC56CCCN5C[C@H](F)C6)nc4c3F)c12 (mixture of isomers) [Example 25, N-((1-(dimethylamino)cyclobutyl)methyl)-8-fluoro-2-(((2S,7aR)-2-fluorotetrahydro-1H-pyrrolizin-7a(5H)-yl)methoxy)-7-(8-isopropylnaphthalen-1-yl)pyrido[4,3-d]pyrimidin-4-amine]
The IC50 of the first is 5.5-fold higher: 9090 nM for the first, 1640 nM for the second. The second is the more potent here.

Going from `CC(C)c1c(Cl)cccc1-c1ncc2c(NCC3(N(C)C)CCC3)nc(OC[C@@]34CCCN3C[C@H](F)C4)nc2c1F` [Example 48, 7-(3-chloro-2-isopropylphenyl)-N-((1-(dimethylamino)cyclobutyl)methyl)-8-fluoro-2-(((2R,7aS)-2-fluorotetrahydro-1H-pyrrolizin-7a(5H)-yl)methoxy)pyrido[4,3-d]pyrimidin-4-amine] to `CC(C)c1ccccc1-c1ncc2c(NCC3(N(C)C)CCC3)nc(OCC34CCCN3CCC4)nc2c1F` [Example 9, N-((1-(dimethylamino)cyclobutyl)methyl)-8-fluoro-7-(2-isopropylphenyl)-2-((tetrahydro-1H-pyrrolizin-7a(5H)-yl)methoxy)pyrido[4,3-d]pyrimidin-4-amine bis(2,2,2-trifluoroacetate)], the IC50 rises from 1080 nM to 2170 nM (2-fold).

`Cc1c(Cl)cc2[nH]ncc2c1-c1ncc2c(NCC3(N(C)C)CCC3)nc(OC[C@@]34CCCN3C[C@H](F)C4)nc2c1F` [Example 13, 7-(6-chloro-5-methyl-1H-indazol-4-yl)-N-((1-(dimethylamino)cyclobutyl)methyl)-8-fluoro-2-(((2R,7aS)-2-fluorotetrahydro-1H-pyrrolizin-7a(5H)-yl)methoxy)pyrido[4,3-d]pyrimidin-4-amine bis(2,2,2-trifluoroacetate)] and `C[C@H]1CNC[C@@H]1Nc1nc(OCC23CCCN2CCC3)nc2c(F)c(-c3cc(O)cc4ccccc34)ncc12` [Example 19, 4-(8-fluoro-4-(((3R,4S)-4-methylpyrrolidin-3-yl)amino)-2-((tetrahydro-1H-pyrrolizin-7a(5H)-yl)methoxy)pyrido[4,3-d]pyrimidin-7-yl)naphthalen-2-ol] are within 1.5-fold of each other in IC50: 165 nM for the first, 245 nM for the second.
